Reference: patent publication EP2511272B1, “Synthetic analogues of abscisic acid with anti-inflammatory and insulin release stimulation effects on human cells” (Universita' degli Studi di Genova, priority 2011, dated 2012)

Tests used:
[1] = Stability after extraction from H2O and HBSS (HPLC-MS); assay type: physicochemical; conditions: for Stability after extraction (amount found): 10 µM; for degradation: 0 vs 24 hrs
Procedure: (§1) Compound prepared according to example 1 was tested for stability at 10 µM concentration in deionized water, phosphate buffer (HBSS with calcium and magnesium) and human plasma for 0 and after 24 hrs at 37 °C, by carrying out the extraction as described in Materials and Methods, and subsequent HPLC-MS analysis for the analyte of interest.
(§2) For stability tests, to 2 ml of deionized water, HBSS or human plasma, the compound of example 1 (10 µM) and 5,000 cpm of [^3H]ABA were added, for the purpose of evaluating the recovery after the extraction procedure. The so prepared samples were exctracted at time 0 and after 24 hrs.
(§3) For the extraction, 8 ml was added of distilled methanol (methanol/water : 80/20 vol/vol) and the mixture was kept at -20 °C overnight.
(§4) The following day the samples were centrifuged at 800xg for 10 minutes and the supernatant was concentrated to dryness by Rotavapor. The reconstituted aqueous solution was acidified at pH 2.6 with 10 % trifluoroacetric acid (TFA) and was extracted three times with diethyl ether (diethyl ether/water: 1:1 vol/vol).
(§5) The ethereal phase was finally removed by Rotavapor and the extraxt was resuspended in 1 ml of HBSS; 8 µl of such solution was analysed by HPLC-MS, and 100 µl was used for radioactivity counting by a Packard β-counter in order to compute extraction recovery.
(§6) The HPLC-MS system used consists of an Agilent 1100 capillary chromatograph equipped with a diode array detector (DAD) and coupled with an Agilent 1100 series LC/MSD Trap mass spectometer with orthogonal electrospray source and a ionic-trap analyser.
(§7) The detection wavelength was 254 nm and the MS spectrum was recorded in negative ions mode in an m/z range of 50-300.
(§8) The amount of compound of example 1 in the extracts and supernatants was computed as the area of the peak under the extracted ion current m/z 279.3, normalized for the ionization efficiency of internal standard (hexadeuterated ABA) used for HPLC-MS analysis. Furthermore, the concentration was computed using the recovery rates obtained from the evaluation of counts per minute (cpm) of extracted [^3H]ABA.

[2] = Stability after extraction from human plasma (HPLC-MS); assay type: in vitro ADME; conditions: for Stability after extraction (amount found): Plasma, 10 µM
Procedure: as §1, §2, §3, §4, §5, §6, §7, §8

[3] = Stability without extraction in H2O and HBSS (HPLC-MS); assay type: physicochemical; conditions: 10 µM, 37 °C
Procedure: (§9) Additionally, stability tests were carried out in water, in HBSS and in HBSS in the presence of human granulocytes at time 0, and after 1 and 2 hrs at 37 °C, and carrying out HPLC-MSS analysis without extracting the analyte of interest.
(§10) In order to test the compound prepared according to example 1 for stability in HBSS in the presence, or absence, of granulocytes, 1 x 10^8 cells were used in 2 ml of HBSS (with calcium and magnesium added) containing 10 µM of compound prepared according to example 1 at 37°C. Samples of 500 µl each were drawn at time 0, and after 1 and 2 hrs and the cells were separated by centrifugation at 200xg for 5 minutes; the supernatant was then recovered and directly analysed in HPLC-MS.
as §6, §7, §8

[4] = test system: human granulocytes; assay: Stability without extraction in HBSS in the presence of human granulocytes (HPLC-MS); assay type: in vitro ADME; conditions: for Stability (without extraction): Granulocytes in HBSS, 10 µM, 37 °C
Procedure: as §9, §10, §6, §7, §8

[5] = test system: 1321 N1 (human astrocytoma); assay: Cytotoxicity, CellTiter 96 AQueous One Solution assay; assay type: cell-based; conditions: 24 hrs
[6] = test system: Raw 264.7 (murine monocitic leukemia); assay: as above; assay type: cell-based; conditions: 24 hrs

**Q.** Which results are given for `CC(=C/C(=O)O)/C=C/C1(O)C(C)(C)CC(=O)C2OC21C` (stereo not drawn) [Example 1, 2'α,3'α-dihydro-2'α,3'α-epoxyabscisic acid]?
**A.** Stability after extraction (amount found) ([1]; H2O, 0 hr, equals extraction yield, listed as compound of example 1): 100%; Stability after extraction (amount found) ([1]; H2O, 0 hr, equals extraction yield, listed as compound prepared according to example 1): 100%; Stability after extraction (amount found) ([1]; H2O, 24 hrs at 37 °C): 86%; Stability after extraction (amount found) ([1]; HBSS, 0 hr, equals extraction yield, listed as compound of example 1): 76%; Stability after extraction (amount found) ([1]; HBSS, 0 hr, equals extraction yield, listed as compound prepared according to example 1): 76%; Stability after extraction (amount found) ([1]; HBSS, 24 hrs at 37 °C): 73%; degradation ([1]; in phosphate buffer): 3%; degradation ([1]; in water): 14%; Stability after extraction (amount found) ([2]; 0 hr, equals extraction yield, listed as compound of example 1): 56%; Stability after extraction (amount found) ([2]; 0 hr, equals extraction yield, listed as compound prepared according to example 1): 56%; Stability after extraction (amount found) ([2]; 24 hrs at 37 °C): 49%; degradation ([2]; in plasma, 0 vs 24 hrs): 7%; Stability (without extraction) ([3]; H2O, 0 hr): 100%; Stability (without extraction) ([3]; H2O, 1 h): 100%; Stability (without extraction) ([3]; H2O, 2 hrs): 98%; Stability (without extraction) ([3]; HBSS, 0 hr): 100%; Stability (without extraction) ([3]; HBSS, 1 h): 100%; Stability (without extraction) ([3]; HBSS, 2 hrs): 89%; Stability (without extraction) ([4]; 0 hr): 94%; Stability (without extraction) ([4]; 1 h): 82%; Stability (without extraction) ([4]; 2 hrs): 73%; degradation rate ([4]; phosphate buffer with human granulocytes, non-extracted samples): about 10 %/ hour; number of cells ([5]; 1 nM): 16199; vitality % ([5]; 1 nM): 89%; number of cells ([5]; 10 nM): 18785; vitality % ([5]; 10 nM): 102%; number of cells ([5]; 1 µM): 19446; vitality % ([5]; 1 µM): 106%; number of cells ([5]; 100 µM): 22252; vitality % ([5]; 100 µM): 120%; number of cells ([6]; 1 nM): 306321; vitality % ([6]; 1 nM): 100%; number of cells ([6]; 10 nM): 30555; vitality % ([6]; 10 nM): 100%; number of cells ([6]; 1 µM): 274987; vitality % ([6]; 1 µM): 90%; number of cells ([6]; 100 µM): 290264; vitality % ([6]; 100 µM): 95%
